Measurements taken from PubChem BioAssay (NCI).
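Assay format: 96-well plates, 48-hour exposure. GI50: concentration for 50% inhibition of growth. At the TGI there is no net growth.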

What was measured:
Assay in all cases: growth of human tumour cells (NCI), 48 h
[1] = system: CCRF-CEM leukemia
[2] = system: K-562 leukemia
[3] = system: T-47D breast
[4] = system: HCT-116 colon
[5] = system: HS 578T breast
[6] = system: SK-MEL-5 melanoma
[7] = system: SF-539 CNS
[8] = system: MCF7 breast
[9] = system: 786-0 renal
[10] = system: SR leukemia
[11] = system: EKVX NSCLC
[12] = system: UACC-62 melanoma
[13] = system: SNB-19 CNS
[14] = system: OVCAR-8 ovarian
[15] = system: HOP-92 NSCLC
[16] = system: TK-10 renal
[17] = system: MDA-MB-231 breast
[18] = system: HT29 colon
[19] = system: SF-268 CNS
[20] = system: UO-31 renal
[21] = system: PC-3 prostate
[22] = system: SW-620 colon
[23] = system: SF-295 CNS
[24] = system: U251 CNS
[25] = system: NCI-H522 lung
[26] = system: HOP-62 NSCLC
[27] = system: A549 NSCLC
[28] = system: SK-OV-3 ovarian
[29] = system: OVCAR-3 ovarian
[30] = system: RXF 393 renal
[31] = system: KM12 colon
[32] = system: SK-MEL-2 melanoma
[33] = system: M14 melanoma
[34] = system: NCI-H226 lung
[35] = system: NCI-H23 lung
[36] = system: NCI-H460 lung
[37] = system: IGROV1 ovarian
[38] = system: RPMI-8226 leukemia
[39] = system: HCT-15 colon
[40] = system: OVCAR-5 ovarian
[41] = system: MDA-MB-435
[42] = system: ACHN renal
[43] = system: COLO 205 colon
[44] = system: BT-549 breast
[45] = system: A498 renal
[46] = system: CAKI-1 renal
[47] = system: NCI/ADR-RES ovarian
[48] = system: UACC-257 melanoma
[49] = system: LOX IMVI melanoma
[50] = system: SN12C renal

## Oc1ccccc1-c1nn(CNc2ccccc2Cl)c(=S)o1
[1]
  GI50: 20.1 µM
  TGI: 55.4 µM
[2]
  GI50: > 100 µM
  TGI: > 100 µM
[3]
  GI50: 13.5 µM
  TGI: 74.9 µM
[4]
  GI50: 29.8 µM
  TGI: > 100 µM
[5]
  GI50: > 100 µM
  TGI: > 100 µM
[6]
  GI50: > 100 µM
  TGI: > 100 µM
[7]
  GI50: 37.7 µM
  TGI: 97.7 µM
[8]
  GI50: 40 µM
  TGI: > 100 µM
[9]
  GI50: > 100 µM
  TGI: > 100 µM
[10]
  GI50: 25.2 µM
  TGI: 89.6 µM
[11]
  GI50: > 100 µM
  TGI: > 100 µM
[12]
  GI50: 71.7 µM
  TGI: > 100 µM
[13]
  GI50: > 100 µM
  TGI: > 100 µM
[14]
  GI50: > 100 µM
  TGI: > 100 µM
[15]
  GI50: 16.4 µM
  TGI: 66.2 µM
[16]
  GI50: 42.2 µM
  TGI: > 100 µM
[17]
  GI50: > 100 µM
  TGI: > 100 µM
[18]
  GI50: 21 µM
  TGI: 63.8 µM
[19]
  GI50: > 100 µM
  TGI: > 100 µM
[20]
  GI50: > 100 µM
  TGI: > 100 µM
[21]
  GI50: 99 µM
  TGI: > 100 µM
[22]
  GI50: 41.9 µM
  TGI: > 100 µM
[23]
  GI50: 65.2 µM
  TGI: > 100 µM
[24]
  GI50: 31.4 µM
  TGI: > 100 µM
[25]
  GI50: > 100 µM
  TGI: > 100 µM
[26]
  GI50: > 100 µM
  TGI: > 100 µM
[27]
  GI50: > 100 µM
  TGI: > 100 µM
[28]
  GI50: > 100 µM
  TGI: > 100 µM
[29]
  GI50: 89.7 µM
  TGI: > 100 µM
[30]
  GI50: > 100 µM
  TGI: > 100 µM
[31]
  GI50: > 100 µM
  TGI: > 100 µM
[32]
  GI50: > 100 µM
  TGI: > 100 µM
[33]
  GI50: > 100 µM
  TGI: > 100 µM
[34]
  GI50: > 100 µM
  TGI: > 100 µM
[35]
  GI50: > 100 µM
  TGI: > 100 µM
[36]
  GI50: 37.4 µM
  TGI: > 100 µM
[37]
  GI50: > 100 µM
  TGI: > 100 µM
[38]
  GI50: 20.2 µM
  TGI: 59.6 µM
[39]
  GI50: 17.9 µM
  TGI: 38.7 µM
[40]
  GI50: 37.2 µM
  TGI: > 100 µM
[41]
  GI50: > 100 µM
  TGI: > 100 µM
[42]
  GI50: 16.8 µM
  TGI: 38.5 µM
[43]
  GI50: 27 µM
  TGI: > 100 µM
[44]
  GI50: > 100 µM
  TGI: > 100 µM
[45]
  GI50: > 100 µM
  TGI: > 100 µM
[46]
  GI50: > 100 µM
  TGI: > 100 µM
[47]
  GI50: 18.2 µM
  TGI: 72.7 µM
[48]
  GI50: > 100 µM
  TGI: > 100 µM
[49]
  GI50: 18.9 µM
  TGI: 35.2 µM
[50]
  GI50: 78.2 µM
  TGI: > 100 µM
